Assay results reported in paper PMC4579554, “Isolation and characterisation of transport-defective substrate-binding mutants of the tetracycline antiporter TetA(B)” (Biochimica et Biophysica Acta, 2015).

Key:
[1] = target: TetA(B)-Δ394–401-Thrombin-His12 (Escherichia coli, UniProt P02980, DEL195-199/DEL203-207); assay: biochemical
Source text: isothermal titration calorimetry on TetA(B)-Δ394–401-Thrombin-His12

[2] = target: T1, TetA(B)-Δ394–401-Thrombin-His12 (Escherichia coli, UniProt P02980, DEL394-401); assay: isothermal titration calorimetry; assay type: binding
T1 construct: C-terminal truncation of residues 394-401, thrombin site and His12 tag (also printed as His10) kept, pET21b, expressed in E. coli C43, purified in LMNG

TetA(B)-His10 = target: T2, TetA(B)-His10 (Escherichia coli, UniProt P02980); assay: isothermal titration calorimetry; assay type: binding
T2 construct: full length (401 residues), C-terminal His10 tag kept, pET21b, expressed in E. coli C43, purified in LMNG
Source text: isothermal titration calorimetry on TetA(B)-His10

Sequence of TetA(B)-Δ394–401-Thrombin-His12 (Escherichia coli, UniProt P02980, DEL195-199/DEL203-207) (P02980 1-393, stated change not applied): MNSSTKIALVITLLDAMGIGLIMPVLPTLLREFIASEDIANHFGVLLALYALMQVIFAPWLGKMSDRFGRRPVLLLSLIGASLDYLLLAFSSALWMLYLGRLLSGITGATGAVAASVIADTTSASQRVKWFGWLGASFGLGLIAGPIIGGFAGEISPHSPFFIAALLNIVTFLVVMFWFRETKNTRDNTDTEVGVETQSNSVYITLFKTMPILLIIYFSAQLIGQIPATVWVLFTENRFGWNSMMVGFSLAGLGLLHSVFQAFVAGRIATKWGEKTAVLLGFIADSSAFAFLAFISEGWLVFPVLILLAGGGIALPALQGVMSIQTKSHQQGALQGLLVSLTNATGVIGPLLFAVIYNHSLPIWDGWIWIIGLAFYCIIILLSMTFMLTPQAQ
T1 sequence (P02980 1-393, stated change not applied): as above
T2 sequence (P02980 whole entry): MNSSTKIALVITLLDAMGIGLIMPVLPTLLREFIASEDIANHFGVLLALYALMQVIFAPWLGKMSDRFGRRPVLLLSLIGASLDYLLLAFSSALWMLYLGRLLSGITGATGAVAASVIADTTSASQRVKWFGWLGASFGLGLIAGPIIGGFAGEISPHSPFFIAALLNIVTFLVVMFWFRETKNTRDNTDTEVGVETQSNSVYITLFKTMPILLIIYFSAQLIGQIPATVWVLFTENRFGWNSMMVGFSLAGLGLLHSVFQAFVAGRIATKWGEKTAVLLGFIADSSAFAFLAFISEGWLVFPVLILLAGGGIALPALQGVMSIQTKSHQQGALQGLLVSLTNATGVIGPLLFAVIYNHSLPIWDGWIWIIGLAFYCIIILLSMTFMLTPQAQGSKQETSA

CN(C)[C@@H]1C(=O)C(C(N)=O)=C(O)[C@@]2(O)C(=O)C3=C(O)c4c(O)cccc4[C@@](C)(O)[C@H]3C[C@@H]12 [tetracycline] was tested. Which Kd [1] did it give?
Its Kd is 17.5 ± 0.5 µM.

And the Kd [2]?
Its Kd is 10 ± 2 µM.

And the Kd (TetA(B)-His10)?
The Kd was 7.3 ± 0.5 µM.
